Laboratory results: patent US12458659B2, “Methods for treating macrophage-mediated diseases, and methods of identifying agents useful therefore” (The Regents of the University of California, priority 2019, dated 2025)

How the values were obtained:
Format in all cases: cell-based, mouse
[1] = tested on: NLRP3 inflammasome components; test: Immunoblot of NLRP3 inflammasome components in BMDM; conditions: BMDM pretreated with RSM932A
Procedure: Protein Immunoblotting and ELISA—Mitochondria were isolated using Mitochondria Isolation kit. Whole cell lysates were prepared in NP40 buffer containing a protease inhibitor cocktail and a phosphatase inhibitor cocktail, and supernatants were analyzed by SDS-PAGE. Proteins were transferred into PVDF membranes, blocked in 5% BSA and 1×TBST for 1 hr, and incubated with indicated antibodies overnight. Secondary antibodies were added for 1 hr and detection was done using CLARITY™ Western ECL Substrate (Biorad). Paired antibodies (capture and detection) and standard recombinant mouse IL-1β (R&D Systems), and TNF and IL-6 (eBioscience) were used to determine cytokine concentrations according to manufacturer's instructions.

caspase-1 = test: Caspase-1 activation in LPS-primed, ATP-treated BMDM (immunoblot); conditions: ATP-treated BMDM pretreated with RSM932A
Procedure: Macrophage culture and stimulation—Femurs and tibias from C57BL/6 mice, Ampkα1^−/− mice, and Il10rb^−/− mice at 6-10 weeks of age were used to generate bone-marrow-derived macrophages (BMDM) as described (Hornung et al., 2008). Macrophages were cultured in DMEM supplemented with 10% FBS, 20% L929-cell conditioned medium, and 100 U/ml penicillin-streptomycin for 7-10 days. Bone marrow was isolated from MWS Nlrp3^A350VneoRCreT, FCAS Nlrp3^L351PneoCreT and NOMID Nlrp3^D301NneoCreT conditional knock-in mice (Bonar et al., 2012; Brydges et al., 2009), and were allowed to differentiate over 7 days with addition of fresh mouse recombinant GMCSF every three days. (Z)-4-hydroxitamoxifen at 0.4 μg/ml was added to cells 24 hr prior to treatment to induce the mutant Nlrp3 allele. Immortalized mouse BMDM were grown in DMEM supplemented with 10% FBS and 100 U/ml penicillin-streptomycin. All cells were grown at 37° C. with 5% CO2. […]
Protein Immunoblotting and ELISA—Mitochondria were isolated using Mitochondria Isolation kit. Whole cell lysates were prepared in NP40 buffer containing a protease inhibitor cocktail and a phosphatase inhibitor cocktail, and supernatants were analyzed by SDS-PAGE. […]

[2] = tested on: choline mobilization via the Kennedy pathway; test: Choline, phosphocholine and phosphatidylcholine content of LPS-stimulated BMDM (NMR, MS); conditions: RSM932A-pretreated BMDM, LPS 4 hr
Procedure: Choline and Phosphocholine Analysis by NMR—BMDM were treated with LPS for 4 hr and then were collected and processed for NMR analysis as described (Guma et al., 2015a; Tiziani et al., 2009). Polar metabolite isolation was performed using a modified Bligh-Dyer procedure (Wu et al., 2008). Extracts were dried using a CentriVap refrigerated vacuum concentrator (Labconco, Kansas City, MO, USA). Dried extracts were reconstituted in 100 mM phosphate buffer (pH 7.0) prepared in 10% H2O/90% D2O (Sigma) that contained 0.5 mM sodium 3-(trimethylsilyl)propionate-2,2,3,3,-d4 (TMSP) as the internal standard. One-dimensional ^1H NMR spectra were acquired on a Bruker Avance III 500 MHz with 1.7 mm TCI MicroCryoProbe system (Bruker BioSpin Corp., Billerica, MA) equipped with an autosampler at 300 K and processed as previously described (Lodi et al., 2017; Lu et al., 2017; Ludwig and Gunther, 2011). Metabolite assignment and quantification were performed using the Chenomx 8.2 NMR Suite (Chenomx Inc., Edmonton, Alberta, Canada), the Birmingham Metabolite Library (Ludwig et al., 2012), and the Human Metabolome Database (Wishart et al., 2012).
Total phosphatidylcholine and mitochondrial lipids analysis by mass spectrometry—Total phosphatydilcholine (PC) analysis was measured in RSM932A-pretreated BMDM stimulated with LPS for 4 hr, while mitochondrial lipids were measured in mitochondria isolated from BMDM cultured in control or choline deficient medium and subjected to different treatments for 24 hr. Samples were processed for UHPLC-MS/MS analysis and analysis was performed on a hybrid quadrupole-Orbitrap mass spectrometer (Q Exactive, Thermo Scientific, Bremen, Germany) coupled to an Accela 1250 UHPLC system equipped with a quaternary pump, vacuum degasser, and open autosampler with temperature controller (6° C.; Fisher Scientific, San Jose, CA, USA). […]

BMDM = test: Cytosolic mtDNA (QPCR); conditions: RSM932A-pretreated BMDM, LPS-primed, ATP or nigericin
Procedure: Cellular fractionation and measurement of cytosolic mtDNA—BMDM were primed with LPS and stimulated with an NLRP3 inflammasome activator. Cellular fractionation was performed using Mitochondrial Isolation kit (ThermoScientific) according to manufacturer's instructions. Cytosolic mtDNA was analyzed as described (Nakahira et al., 2011). Briefly, DNA was isolated from 300 μl of the cytosolic fractions using All Prep DNA/RNA kit, and mitochondrial DNA encoding cytochrome c oxidase 1 and D-Loop were measured by QPCR with an equal volume of the DNA solution. Nuclear DNA encoding 18S ribosomal RNA and Tert was used for normalization. Primer sequences were obtained from the NIH qPrimerDepot (mouseprimerdepot.nci.nih.gov) and provided by Integrated DNA Technologies, as set forth below.

expression of NLRP3 inflammasome components (caspase-1, NLRP3, ASC, pro-IL-1β induced by LPS) [1]: did not alter
caspase-1 activation (caspase-1): inhibited
SMILES: C/[N+](c1ccc(Cl)cc1)=c1\ccn(Cc2ccc(-c3ccc(Cn4cc/c(=[N+](/C)c5ccc(Cl)cc5)c5ccccc54)cc3)cc2)c2ccccc12 [RSM932A]
LPS-induced increase in cellular content of phosphocholine, glycerol-3-phosphocholine and phosphatidylcholine (PC) [2]: blocked
amount of cytosolic mtDNA (BMDM): reduced
